The text below walks through data of patent US20110111115A1, “REBAUDIOSIDE A POLYMORPHS AND METHODS TO PREPARE THEM” (priority 2009, published 2011).

This series is described as follows: Solubility in water of the rebaudioside A polymorph. It is filed as physicochemical. As to conditions: 25° C.

For the molecule `C=C1C[C@@]23CC[C@H]4[C@@](C)(CCC[C@@]4(C)C(=O)O[C@@H]4O[C@H](CO)[C@@H](O)[C@H](O)[C@H]4O)[C@@H]2CC[C@]1(O[C@@H]1O[C@H](CO)[C@@H](O)[C@H](O[C@@H]2O[C@H](CO)[C@@H](O)[C@H](O)[C@H]2O)[C@H]1O[C@@H]1O[C@H](CO)[C@@H](O)[C@H](O)[C@H]1O)C3` [rebaudioside A polymorph, rebaudioside A], the solubility in water entry is “about 1.5 mg/ml”.
